The results in this text go back to PubChem BioAssay AID588390 (Sanford-Burnham Center for Chemical Genomics, 2011).

Each structure is given as a SMILES string. The source made the active and inactive calls. The rule behind the calls is not given here.

For this test, the target named is Ubiquitin-conjugating enzyme E2 N (Homo sapiens) (UniProt P61088). The experiment in a line: UBC13 polyubiquitination inhibitor analogues, SAR follow-up, biochemical, TR-FRET, set 2 (AID 588390). On the technique in general: Time-resolved FRET reads energy transfer from a long-lived donor to a nearby acceptor.
Chain of Ubiquitin-conjugating enzyme E2 N (Homo sapiens) (P61088 whole entry, looked up): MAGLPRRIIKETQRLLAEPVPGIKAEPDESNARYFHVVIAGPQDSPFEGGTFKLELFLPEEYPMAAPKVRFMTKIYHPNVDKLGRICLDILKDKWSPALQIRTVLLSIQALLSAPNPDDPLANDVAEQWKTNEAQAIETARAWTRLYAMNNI

Broadly, the IC50 is the point on the concentration scale where inhibition reaches its midpoint. As to `O=C(C1CCN(c2ncnc3c2nc2n3CCCCC2)CC1)N1CCN(Cc2ccccc2)CC1`, the IC50 is 2.75 µM.
Take `Cc1nc2ccccc2n1C1CCN(CC(=O)Nc2ccccc2Oc2ccccc2)CC1`: the IC50 was > 100 µM (inactive).
The entry for `COc1ccc(OC)c(NC(=O)CN2CCC(n3c(C)nc4cc(F)ccc43)CC2)c1` is “inactive”.
In the case of `CC1(C)Cc2c(sc(NC(=O)C(=O)NCC3CCCO3)c2C(=O)O)CO1` (configuration not stated), the IC50 result was “inactive”.
For `Cc1cccc(N2CCN(CCCNC(=O)C3CCCN(c4ncnc5c4nc4n5CCCCC4)C3)CC2C)c1` (configuration not stated), the IC50 entry was “inactive”.
The entry for `O=C(CN1CCC(n2cnc3cc(F)ccc32)CC1)Nc1ccccc1Br` is “inactive”; for `CCOc1ccccc1NC(=O)CN1CCC(n2cnc3cc(F)ccc32)CC1` it is 4 µM; for `O=C(C1CCN(c2ncnc3c2nc2n3CCCCC2)CC1)N1CCN(c2ncccn2)CC1` it is > 100 µM (inactive).
The figure for `COc1ccc(NC(=O)CN2CCC(n3c(C)nc4cc(F)ccc43)CC2)c(OC)c1` is > 100 µM (inactive); for `COC(=O)c1c(NC(=O)C(=O)NCC2CCCO2)sc2c1CC(C)(C)OC2` (configuration not stated) it is 4.25 µM.
Regarding `CC1(C)Cc2c(sc(NC(=O)C(=O)N3CCCC3)c2C(N)=O)CO1`, the IC50 was 0.58 µM.
Take `COc1ccccc1N1CCN(CCCNC(=O)C2CCCN(c3ncnc4c3nc3n4CCCCC3)C2)CC1` (configuration not stated): the IC50 result is “inactive”.
For the molecule `Cc1ccc(C)c(N2CCN(CCCNC(=O)C3CCCN(c4ncnc5c4nc4n5CCCCC4)C3)CC2)c1` (configuration not stated), the half-inhibitory concentration (IC50) is 9.81 µM.
On to `O=C(CN1CCC(n2c(C(F)(F)F)nc3cc(F)ccc32)CC1)Nc1ccc2c(c1)OCO2`, for which the IC50 is > 100 µM (inactive).
Regarding `O=C(CN1CCC(n2cnc3cc(C(F)(F)F)ccc32)CC1)Nc1ccc2c(c1)OCCO2`, the IC50 was > 100 µM (inactive).
Consider `COc1ccc(OC)c(NC(=O)CN2CCC(n3cnc4cc(F)ccc43)CC2)c1`, for which the IC50 result was “inactive”.
The figure for `CC1(C)Cc2c(sc(NC(=O)C(=O)NCC3CCCO3)c2C(N)=O)CO1` (configuration not stated) is 0.63 µM; for `O=C(c1ccco1)N1CCN(C(=O)C2CCN(c3ncnc4c3nc3n4CCCCC3)CC2)CC1` it is > 100 µM (inactive).
`Cc1nc2cc(F)ccc2n1C1CCN(CC(=O)Nc2ccccc2)CC1`: the IC50 was > 100 µM (inactive).
For the molecule `O=C(NCCCN1CCN(c2ccc(F)cc2)CC1)C1CCCN(c2ncnc3c2nc2n3CCCCC2)C1` (configuration not stated), the IC50 is 2.91 µM.
For `CC1(C)Cc2c(sc(NC(=O)C(=O)NCCN3CCOCC3)c2C(N)=O)CO1`, the half-inhibitory concentration (IC50) is 1.34 µM.
As to `O=C(C1CCN(c2ncnc3c2nc2n3CCCCC2)CC1)N1CCN(c2ccc(F)cc2)CC1`, the IC50 entry was “inactive”.
Turning to `O=C(CN1CCC(n2cnc3cc(F)ccc32)CC1)Nc1cccc(C(F)(F)F)c1`, the IC50 is > 100 µM (inactive).
The figure for `O=C(NCCCN1CCN(c2ccccc2)CC1)C1CCCN(c2ncnc3c2nc2n3CCCCC2)C1` (configuration not stated) is 3.3 µM; for `Cc1cccc(NC(=O)CN2CCC(n3cnc4cc(F)ccc43)CC2)c1C` it is > 100 µM (inactive).
Take `O=C(C1CCN(c2ncnc3c2nc2n3CCCCC2)CC1)N1CCN(c2ccccn2)CC1`: the IC50 result is “inactive”.
For the molecule `CCOc1ccc(NC(=O)CN2CCC(n3cnc4cc(F)ccc43)CC2)cc1`, the IC50 is > 100 µM (inactive).
